According to patent publication EP4722219A1 (Gan & Lee Pharmaceuticals Co., Ltd., priority 2023, dated 2024):
Residue numbers refer to the chain shown, from its start. Like-named read-outs stand apart in the source and are kept apart here. Blank lines part the entries; values can stand above or below the compound they belong to.

Assays:
CRBN protein = CRBN protein (Homo sapiens, UniProt Q96SW2); assay: Binding activity to E3 ubiquitin ligase CRBN (HTRF competitive binding kit, Thalidomide-Red)
From the text: Binding activity of the E3 ligase inhibitor disclosed in the present invention to E3 ubiquitin ligase CRBN
CRBN binding activity test kit (CEREBLON BINDING KITS (PE, 64BD CRBN PEG).
The detection is based on homogeneous time-resolved fluorescence (HTRF) technology.
This kit uses a europium-labeled GST antibody (GST Eu Cryptate Antibody) as the donor and XL665-labeled thalidomide (Thalidomide-Red reagent) as the receptor. The donor binds to the GST-tagged CRBN protein.
The donor and receptor were each diluted 50-fold using the buffer provided in the kit (PROTAC binding buffer 1). The CRBN protein was diluted 45-fold. An 8mM solution of the compound disclosed herein was diluted 10-fold using the diluent provided in the kit (1X diluent), followed by 7 successive 5-fold serial dilutions of the resulting solution.
The ratio of the acceptor and donor emission signals was calculated for each individual well.
IC50 values was calculated based on compound concentration, Ratio, and coefficient of variation using GraphPad Prism.

AR protein [1] = biological target: T1, AR protein (Homo sapiens, UniProt P10275); assay: AR protein degradation in VCaP cells (Western blot); assay type: cell-based; conditions: 8h
T1 construct: host or cells: VCaP
T1 sequence (P10275 1-920): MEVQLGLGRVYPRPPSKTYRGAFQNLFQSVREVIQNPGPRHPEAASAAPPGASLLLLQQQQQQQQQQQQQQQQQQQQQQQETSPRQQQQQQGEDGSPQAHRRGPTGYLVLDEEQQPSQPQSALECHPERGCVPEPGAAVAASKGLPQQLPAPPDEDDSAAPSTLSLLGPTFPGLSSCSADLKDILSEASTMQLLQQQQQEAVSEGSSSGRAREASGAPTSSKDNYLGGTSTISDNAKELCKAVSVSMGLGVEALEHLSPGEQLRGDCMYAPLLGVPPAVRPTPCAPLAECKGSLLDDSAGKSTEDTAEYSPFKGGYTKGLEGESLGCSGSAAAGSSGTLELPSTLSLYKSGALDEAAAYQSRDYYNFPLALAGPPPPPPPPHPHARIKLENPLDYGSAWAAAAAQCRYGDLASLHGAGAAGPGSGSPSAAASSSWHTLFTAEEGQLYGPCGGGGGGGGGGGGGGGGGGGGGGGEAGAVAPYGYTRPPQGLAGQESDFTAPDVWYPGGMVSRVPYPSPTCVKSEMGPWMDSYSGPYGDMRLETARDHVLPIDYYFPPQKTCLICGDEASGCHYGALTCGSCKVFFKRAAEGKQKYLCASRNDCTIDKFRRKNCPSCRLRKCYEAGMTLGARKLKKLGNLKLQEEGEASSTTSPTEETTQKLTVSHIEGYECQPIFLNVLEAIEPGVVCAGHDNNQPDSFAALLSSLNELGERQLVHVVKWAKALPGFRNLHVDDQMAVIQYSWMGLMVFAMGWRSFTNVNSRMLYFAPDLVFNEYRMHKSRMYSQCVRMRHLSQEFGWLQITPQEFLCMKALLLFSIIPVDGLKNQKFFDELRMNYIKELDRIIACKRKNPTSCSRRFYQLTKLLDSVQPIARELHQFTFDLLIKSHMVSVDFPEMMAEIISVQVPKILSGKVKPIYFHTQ
Method: The degradation activity of the compounds disclosed in the present invention on AR protein in VCaP cells (cell source: ATCC)
The AR-positive human prostate cancer cells VCaP cultured in DMEM (GiBco catalog number 11995-065) containing 10% FBS (Hyclone catalog number SH30406.05) was inoculated in a six-well microplate (Thermo catalog number 140675) at a concentration of 3×10^5 cells/ well. After being cultured overnight in a carbon dioxide incubator (ESCO), the prepared compound of the present invention and the positive control sample ARV-766 (Annaiji) solution of different concentrations were added at a volume of 1 µL/well to make the final concentrations of the compound and the positive control sample reach 5nM and 0.5nM, respectively. At the same time, the corresponding solvent control was set and cultured for 8h. After 8h of culture, the culture medium was removed, and the cells were washed with PBS. RIPA lysis buffer containing 1% Protease Inhibitor Cocktail was added. After lysis and centrifugation, a total protein extract was obtained, and the protein concentration in the extract was detected by BCA method. Protein electrophoresis was performed using SDS-PAGE, and then the protein was transferred to a PVDF (Millipore Sigma catalog number PSRP010R5) membrane at a constant voltage of 100V for 60min. The PVDF membrane was placed in a 5% milk powder 1×TBST solution and blocked at room temperature for 1h. The primary antibody solution (Anti-Androgen receptor, Cell Signaling Technology catalog number: 5153S; 1:2000 dilution) was prepared and was incubated at 4°C overnight. The primary antibody solution was discarded and the PVDF membrane was washed with 1×TBST for 5 minutes each time, for three times. The secondary antibody solution (Thermo catalog number SA5-35571; 1:7500 dilution) was prepared and was incubated at room temperature for 1 hour. The secondary antibody solution was discarded and the PVDF membrane was washed with 1×TBST for 5 minutes each time, for three times. A dual-color infrared laser imaging system (Licor catalog number Odyssey CLX) was used for Western membrane imaging. Image Studio software was used to analyze the grayscale of the bands. GAPDH protein bands were also detected for each sample as the reference. The AR protein degradation rate of the compound and the positive control sample was calculated based on the grayscale of the protein bands.
Table 7 Degradation rate of AR protein in VCaP cells by the compounds disclosed in the present invention

LNCaP cells = assay: Inhibition of LNCaP cell proliferation (WST-8); assay type: cell-based; conditions: Homo sapiens, LNCaP FGC cells, 96 hours
Outline: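 Cells were seeded and cultured overnight at 37 °C, 5% CO2, then exposed for 96 h to compound at 9 concentrations, 5-fold serial dilution from 10 µM final. Viability was read by WST-8 absorbance at 450 nm.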

VCaP cells = assay: Inhibition of VCaP cell proliferation (WST-8); assay type: cell-based; conditions: Homo sapiens, 168 hours
Outline: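 VCaP cells seeded at 15,000/well in DMEM + 10% FBS, treated next day with nine 5-fold dilutions from 10 µM (final) at 37°C, 5% CO2. Viability read by WST-8 absorbance at 450 nm on day 9.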

AR protein [2] = biological target: T2, AR protein (Homo sapiens, UniProt P10275, T878A); assay: AR protein degradation in LNCaP cells (Western blot); assay type: cell-based; conditions: 8 hours
T2 construct: host or cells: LNCaP FGC
T2 sequence (P10275 1-920 T878A): T1 sequence (P10275 1-920) with T878A
Outline: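 LNCaP cells exposed to compound or solvent control for 8 h, lysed in RIPA, protein normalized by BCA. AR detected by SDS-PAGE/Western blot with infrared imaging; band grayscale normalized to GAPDH to calculate AR degradation rate.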

[3] = competition with XL665-labeled thalidomide for GST-tagged CRBN protein, HTRF, 3 hours at room temperature
[4] = competition with XL665-labeled thalidomide for GST-tagged CRBN protein, HTRF, 3 hours at room temperature, read-out: IC50

Compound: COc1cc2c(cc1C(=O)N[C@H]1CCC(=O)NC1=O)OC1(CCNCC1)CC2 [Compound A12, (S)-N-(2,6-dioxohesperidin-3-yl)-6-methoxyspiro[chroman-2,4'-pyridine]-7-carboxamide]
IC50 (CRBN protein): 20.3 µM

Compound: COc1cc2c(cc1C(=O)N[C@H]1CCC(=O)NC1=O)CCC1(CCNCC1)O2 [Compound A11, (S)-N-(2,6-dioxyhesperidin-3-yl)-7-methoxyspiro[chroman-2,4'-piperidine]-6-carboxamide]
IC50 (CRBN protein; [3]): 14.4 µM

IC50 (CRBN protein; [4]): 2.06 µM
Compound: CN(c1ccc2c(c1)OC[C@H]1CNCCN21)C1CCC(=O)NC1=O (stereo partly drawn) [Compound C10, 3-(((R)-1,2,3,4,4a,5-Hexahydrobenzo[b]pyrazino[1,2-d][1,4]oxazine-8-yl)(methyl)amino)piperidine-2,6-dione]

IC50 (CRBN protein; [4]): 0.55 µM
Compound: Cn1c(=O)n(C2CCC(=O)NC2=O)c2ccc3c(c21)OC[C@H]1CNCCN31 (stereo in doubt) [Compound D6, 3-((R)-3-Methyl-2-oxo-2,3,5,5a,6,7,8,9-octahydro-1H-imidazo[4',5':5,6]benzo[1,2-b]pyrazino[1,2-d][1,4]oxazine-1-yl)piperidine-2,6-dione]

Compound: CN(C(=O)c1ccc2c(c1)OC[C@H]1CNCCN21)[C@H]1CCC(=O)NC1=O [Compound B7, (R)-N-((S)-2,6-Dioxyhesperidin-3-yl)-N-methyl-1,2,3,4,4a,5-hexahydrobenzo[b]pyrazino[1,2-d][1,4]oxazine-8-carboxamide]
IC50 (CRBN protein; [3]): 5.32 µM

Compound: O=C1CC[C@H](NC(=O)c2cc3c(cc2F)OC2(CCNCC2)CC3)C(=O)N1 [Compound A5, (S)-N-(2,6-dioxopiperidin-3-yl)-7-fluoro-spiro[2,4'-piperidine]-6-carboxamide]
IC50 (CRBN protein): 20.8 µM

IC50 (CRBN protein; [4]): 52.8 µM
Compound: O=C1CC[C@H](NC(=O)c2cc3c(cc2F)OCC32CCNCC2)C(=O)N1 [Compound A3, (S)-N-(2,6-dioxopiperidin-3-yl)-6-fluoro-2H-spiro[benzofuran-3,4'-piperidine]-5-carboxamide]

IC50 (CRBN protein; [4]): 3.38 µM
Compound: O=C1CCC(Nc2ccc3c(c2)OCC2(CCNCC2)C3)C(=O)N1 (centres unmarked) [Compound C6, 3-(Spiro[benzopyran-3,4'-piperidine]-7-ylamino)piperidine-2,6-dione]

IC50 (CRBN protein; [4]): 1.9 µM
Compound: O=C1CCC(Nc2ccc3c(c2)OCC32CCNCC2)C(=O)N1 (centres unmarked) [Compound C1]

Compound: COc1c(C(=O)N[C@H]2CCC(=O)NC2=O)ccc2c1OCC21CCNCC1 [Compound A8, (S)-N-(2,6-dioxohesperidin-3-yl)-7-methoxy-2H-spiro[benzofuran-3,4'-piperidine]-6-carboxamide]
IC50 (CRBN protein; [3]): 24.6 µM

IC50 (CRBN protein; [4]): 5.45 µM
Compound: O=C1CCC(Nc2ccc3c(c2)OC2(CCNCC2)C3)C(=O)N1 (centres unmarked) [Compound C5, 3-((3H-spiro[benzofuran-2,4'-piperidine]-6-yl)amino)piperidine-2,6-dione]

Compound: O=C1CCC(Nc2ccc3c(c2)CCC2(CCNCC2)O3)C(=O)N1 (centres unmarked) [Compound C3]
IC50 (CRBN protein; [3]): 5.53 µM

Degradation rate of AR protein in VCaP cells (AR protein [1]; 0.5 nM): 2%
Degradation rate of AR protein in VCaP cells (AR protein [1]; 5 nM): 70%
IC50 (LNCaP cells): 0.5 µM
IC50 (VCaP cells): 2.16 µM
Compound: COc1cc(O[C@H]2C(C)(C)[C@H](NC(=O)c3ccc(N4CCC(CN5CCN6c7ccc(C(=O)N[C@H]8CCC(=O)NC8=O)cc7OC[C@H]6C5)CC4)cc3)C2(C)C)ccc1C#N [A-P-74, (R)-3-((1-(4-(((1R,3R)-3-(4-cyano-3-methoxyphenoxy)-2,2,4,4-tetramethylcyclobutyl)carbamoyl)phenyl)piperidin-4-yl)methyl)-N-((S)-2,6-dioxopiperidin-3-yl)-1,2,3,4,4a,5-hexahydrobenzo[b]pyrazi no[1,2-d][1,4]oxazine-8-carboxamide]

Compound: C[C@H]1CC2(CCN(c3ccc(C(=O)N4CCC(CN5CCN6c7ccc(C(=O)N[C@H]8CCC(=O)NC8=O)c(F)c7OC[C@H]6C5)CC4)cc3)CC2)CN1c1ccc(C#N)c(Cl)c1 [A-P-62, (R)-3-((1-(4-((S)-2-(3-chloro-4-cyanophenyl)-3-methyl-2,8-diazaspiro[4.5]decan-8-yl)benzoyl)piperidin-4-yl)methyl)-N-((S)-2,6-dioxopiperidin-3-yl)-7-fluoro-1,2,3,4,4a,5-hexahydrobenzo[b]pyrazi no[1,2-d][1,4]oxazine-8-carboxamide]
percent AR protein degradation at a fixed concentration at 0.01 µM (AR protein [2]; 10 nM): 47%
percent AR protein degradation at a fixed concentration at 0.1 µM (AR protein [2]; 100 nM): 72%
IC50 (LNCaP cells): 9.54 µM
IC50 (VCaP cells): 0.45 µM
